Where a name gives a salt, the structure may show the parent alone. Read-outs that look alike come from different tables or passages of the source.
Details: stirring

Compound: C#CCN[C@@H]1CCc2ccccc21 [Rasagiline mesylate, R(+)-N-propargyl-1-aminoindan]
- Solubility (Observation: amount soluble, clear solution) (Capmul MCM (glyceryl mono- & dicaprate), RT): 64 mg/g soluble,
- Solubility (Observation: amount soluble, clear solution) (Cremophor EL (polyoxyethylene castor oil derivative), RT): 25 mg/g soluble,
- Solubility (Observation: amount soluble, clear solution) (Ethanol, RT): 66.6 mg/g soluble,
- Solubility (Observation) (Gelucire 44/14 (Lauroyl macrogol-32 glyceride), 45-50° C.): Not soluble
- Solubility (Observation) (Labrafil M 1944 CS (polyoxyethylated glycolysed glycerides), 37° C.): Not soluble
- Solubility (Observation) (Labrafil M 1944 CS (polyoxyethylated glycolysed glycerides), RT): Not soluble
- Solubility (Observation: amount soluble, clear solution) (Labrasol (Caprylocaproyl macrogol-8 glyceride), 37-40° C.): 10 mg/g soluble,
- Solubility (Observation) (Miglyol 810 (Caprylic/Capric Triglyceride), 37° C.): Not soluble
- Solubility (Observation) (Miglyol 810 (Caprylic/Capric Triglyceride), RT): Not soluble
- Solubility (Observation: amount soluble, clear solution) (Polyethylene Glycol 400, RT): 25 mg/g soluble,
- Solubility (Observation: amount soluble, clear solution) (Propylene Glycol, RT): 25 mg/g soluble,
- Solubility (Observation) (Soybean oil, 37° C.): Not soluble
- Solubility (Observation) (Soybean oil, RT): Not soluble
- Solubility (Observation: amount soluble, clear solution) (Transcutol (2-(2-ethoxyethoxy)ethanol), RT): 25 mg/g soluble,
- Solubility (Observation: amount soluble, clear solution) (Tween 80 (polyoxyethylene sorbitan fatty acid esters), RT): 10 mg/g soluble,
